Four compounds from publication PMC11356900, “Synthesis, Structural Properties and Biological Activities of Novel Hydrazones of 2-, 3-, 4-Iodobenzoic Acid” (Molecules, 2024) can be followed below.

In series [1] the test system is Proteus mirabilis ATCC 12453. The series is described as follows: Broth microdilution MIC/MBC. Conditions: ATCC12453.
Series [2] has as its system Candida krusei ATCC 14243. The series is described as follows: Broth microdilution MIC/MFC. To be noted: Pichia kudriavzevii; for MFC: ATCC14243, read-out: MFC; for MIC: ATCC14243, read-out: MIC. The series is classed as cell-based. Summed up:
(§1)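 Following EUCAST and CLSI guidance, growth inhibition is measured in broth across final compound levels of 1000 down to 0.488 µg/mL. Cidal endpoints come from spotting each well onto agar; three independent repeats.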
(In general: Dilution methods test growth across graded concentrations, often in twofold steps.)

The test system of series [3] is Candida parapsilosis ATCC 22019. As to the kind of experiment: Broth microdilution MIC/MFC. It is filed as cell-based. To be noted: Lodderomyces parapsilosis; for MFC: ATCC22019, read-out: MFC; for MIC: ATCC22019, read-out: MIC. The method in brief:
as §1

Series [4] concerns Candida glabrata ATCC 90030. As to the kind of experiment: Broth microdilution MIC/MFC. It is filed as cell-based. To be noted: Nakaseomyces glabratus; for MFC: ATCC90030, read-out: MFC; for MIC: ATCC90030, read-out: MIC. The method in brief:
as §1

Series [5] deals with Candida albicans ATCC 10231. The series is described as follows: Broth microdilution MIC/MFC. The series is classed as cell-based. To be noted: for MFC: ATCC10231, read-out: MFC; for MIC: ATCC10231, read-out: MIC. Summed up: as §1
Series [6] deals with Candida albicans ATCC 2091. The series is described as follows: Broth microdilution MIC/MFC. It is filed as cell-based. To be noted: for MFC: ATCC2091, read-out: MFC; for MIC: ATCC2091, read-out: MIC. The method in brief:
as §1

In series [7] the test system is Micrococcus luteus ATCC 10240. The series is described as follows: Broth microdilution MIC/MBC. To be noted: Micrococcus luteus, ATCC10240.
In series [8] the test system is Escherichia coli ATCC 25922. As to the kind of experiment: Broth microdilution MIC/MBC. To be noted: ATCC25922.

Broadly, the MIC is the smallest concentration in the dilution series that meets the test's criterion for growth inhibition. As a reminder, the MFC is the lowest tested concentration that kills the fungus rather than only halting it. A word on the MBC: it is the lowest tested concentration that kills the bacteria rather than only halting them. For orientation: melting point means the temperature, or range, at which the solid turns liquid.

Molecules are shown by their SMILES. ≈ marks a conversion by molar mass, not a printed value. Where only a bound is given, the exact number is not on record here.

As for `O=C(N/N=C/c1cc(Br)cc(Br)c1O)c1cccc(I)c1` [Compound 21, N-[(3,5-dibromo-2-hydroxyphenyl)methylidene]-3-iodobenzohydrazide], the melting point lay in the range of 210 to 211 °C. Also, in [1], the MIC was > 1000 µg/mL. In addition, in series [2], the MFC is > 1000 µg/mL and the MIC stood at 500 µg/mL (≈ 954 µM). Besides, in series [3], the MFC was > 1000 µg/mL and the MIC is 250 µg/mL (≈ 477 µM). In addition, in series [4], the minimum fungicidal concentration (MFC) was > 1000 µg/mL and the MIC amounted to 125 µg/mL (≈ 239 µM). In [5], the MFC is > 1000 µg/mL and the minimal inhibitory concentration (MIC) was determined as 250 µg/mL (≈ 477 µM). Moreover, in series [6], the MFC was > 1000 µg/mL and the MIC amounted to 500 µg/mL (≈ 954 µM). In series [7], this compound had an MBC of 15.6 µg/mL (≈ 29.8 µM) and an MIC of 3.91 µg/mL (≈ 7.46 µM). The MIC in series [8] was > 1000 µg/mL.
Turning to `O=C(N/N=C/c1cc(Cl)cc(I)c1O)c1ccc(I)cc1` [Compound 27, N-[(5-chloro-2-hydroxy-3-iodophenyl)methylidene]-4-iodobenzohydrazide], the melting point was in the range of 200 to 201 °C. In series [1], this compound yielded an MBC of 1000 µg/mL (≈ 1900 µM), an MBC/MIC of 2 and an MIC of 500 µg/mL (≈ 950 µM). Moreover, in [2], the MFC was 62.5 µg/mL (≈ 119 µM) and the MIC stood at 62.5 µg/mL (≈ 119 µM). For the same compound, in series [3], the MFC was 62.5 µg/mL (≈ 119 µM) and the MIC was found to be 31.2 µg/mL (≈ 59.4 µM). In series [4], the MFC was determined as 62.5 µg/mL (≈ 119 µM) and the MIC was determined as 31.2 µg/mL (≈ 59.4 µM). In series [5], the MFC worked out at 31.2 µg/mL (≈ 59.4 µM) and the MIC came out at 15.6 µg/mL (≈ 29.7 µM). For the same compound, in series [6], the minimum fungicidal concentration (MFC) was 62.5 µg/mL (≈ 119 µM) and the MIC was 62.5 µg/mL (≈ 119 µM). In series [7], this compound had an MBC of 250 µg/mL (≈ 475 µM) and an MIC of 125 µg/mL (≈ 237 µM). In series [8], this compound yielded an MBC of 500 µg/mL (≈ 950 µM), an MBC/MIC of 1 and an MIC of 500 µg/mL (≈ 950 µM).
Take `O=C(N/N=C/c1cc(Cl)cc(I)c1O)c1cccc(I)c1` [Compound 20, N-[(5-chloro-2-hydroxy-3-iodophenyl)methylidene]-3-iodobenzohydrazide]: the melting point lay in the range of 205 to 208 °C. Moreover, in series [1], the MBC was 1000 µg/mL (≈ 1900 µM), the MBC/MIC is 2 and the MIC was 500 µg/mL (≈ 950 µM). Further, in series [2], the MFC was > 1000 µg/mL and the MIC stood at 500 µg/mL (≈ 950 µM). Further, in series [3], the MFC is > 1000 µg/mL and the MIC turned out to be 125 µg/mL (≈ 237 µM). Besides, in series [4], the MFC was > 1000 µg/mL and the MIC was found to be 125 µg/mL (≈ 237 µM). Moreover, in series [5], the MFC is > 1000 µg/mL and the MIC stood at 250 µg/mL (≈ 475 µM). For the same compound, in [6], the MFC was > 1000 µg/mL and the MIC is 500 µg/mL (≈ 950 µM). Further, in [7], the MBC worked out at 7.81 µg/mL (≈ 14.8 µM) and 1.95 µg/mL (≈ 3.7 µM) was the least that counted as inhibitory (MIC). Besides, in series [8], the MBC was > 1000 µg/mL, the MBC/MIC was > 1 and the lowest concentration to inhibit growth (MIC) was 1000 µg/mL (≈ 1900 µM).
`O=C(N/N=C/c1cc(I)cc(I)c1O)c1ccccc1I` [Compound 14, N-[(3,5-diiodo-2-hydroxyphenyl)methylidene]-2-iodobenzohydrazide] came in with a melting point of 241 to 245 °C. In series [2], the MFC is > 1000 µg/mL and the MIC was 500 µg/mL (≈ 809 µM). For the same compound, in series [3], the MFC is > 1000 µg/mL and the MIC was found to be 1000 µg/mL (≈ 1620 µM). Moreover, in [4], the MFC worked out at 1000 µg/mL (≈ 1620 µM) and the MIC is 250 µg/mL (≈ 405 µM). In addition, in [5], the MFC turned out to be 1000 µg/mL (≈ 1620 µM) and the MIC was found to be 500 µg/mL (≈ 809 µM). In series [6], the MFC is > 1000 µg/mL and the MIC is 500 µg/mL (≈ 809 µM). In series [7], this compound yielded an MBC of 125 µg/mL (≈ 202 µM) and an MIC of 62.5 µg/mL (≈ 101 µM).
